From patent US20260158149A1, “GLYCOSYLATED PRODRUGS” (UNIVERSITEIT LEIDEN, priority 2021, published 2026) come the findings set out here.

Each structure is given as a SMILES string. Entries after “also recorded” stand apart in the source; their conditions may differ.

Data set [1] in a line: Whole-body cortisol measurement using ELISA. The note with it: for whole body cortisol level: 5 dpf larvae treated from 2 hpf, non-wounded; for whole body cortisol level under wounding conditions / whole body cortisol level under wounding conditions with MZ31: 5 dpf larvae, wounded at 2 dpf; for whole body cortisol level under wounding conditions with MZ31: GBA2 inhibitor MZ31. (In an ELISA, binding on a coated surface is turned into a signal by an enzyme label.)
Procedure: Zebrafish embryos at 2 hpf received a chemical treatment, as indicated, with daily refreshment of the solutions, until 96 hpf. Then, the treatments were stopped and embryos were incubated in egg water until 5 dpf to avoid cross-reactivity with the compounds of the cortisol antibody used in the ELISA. Then, the treatments were stopped and replaced with egg water. At 5 dpf, the larvae were collected in an Eppendorf tube and 100 μL of ice-cold phosphate-buffered saline (PBS) was added. The larvae were homogenized using a BulletBlender® for 3 min at 8,000 rpm. Ethyl acetate was added to the homogenate and the supernatant was gathered and vaporized. A volume of 150 μl of 0.2% Bovine serum albumin (Sigma Aldrich) dissolved in phosphate-buffered saline (PBS) was added to the samples and frozen. Whole-body cortisol of the zebrafish larvae was determined by ELISA (Demeditec Diagnostics GmbH, Kiel-Wellsee, Germany), following the manufacturer's instructions. In each experiment, three biological replicates were used for each treatment group, and the colorimetric assay was performed using technical duplicates.

The nature of data set [2]: Whole-body glucose measurement in larvae. Particulars: 5 dpf larvae treated from 2 hpf, non-wounded.
Procedure: Zebrafish embryos at 2 hpf received a chemical treatment, as indicated, with daily refreshment of the solutions, until 5 dpf. At 5 dpf, the larvae were collected in an Eppendorf tube and 100 μL of ice-cold glucose buffer was added to each sample. The larvae were homogenized using a BulletBlender® for 3 min at 8,000 rpm. The homogenates were then centrifuged at 4° C. for 8 min at 11000 rpm and the supernatant was stored at −20° C. Whole-body glucose concentrations were determined using a Glucose Colorimetric Assay kit (Cayman Chemical, USA), according to the manufacturer's instructions. In each experiment, three biological replicates were used for each treatment group, and the colorimetric assay was performed using technical duplicates.
The nature of data set [3]: Larval body length. Particulars: 5 dpf, treatment from 2 hpf. It counts as in vivo, Zebrafish (Danio rerio). The procedure:
(§1) When the regeneration of the tail fins after wounding or the larval body length was used as a readout, chemical treatments of the embryos were started at 2 hours post fertilization (hpf) and continued until 5 dpf. During this period, solutions were refreshed daily. At 5 dpf, larvae were imaged using a LeicaMZ16FA fluorescence stereomicroscope supported by LAS 3.7 software, and the length of the larvae was measured using ImageJ software (15 larvae per treatment group). For the regeneration experiments, tail fins were amputated at 2 dpf and larvae were imaged at 5 dpf (15 larvae per treatment group). The newly grown tissue can be distinguished from the old tissue, enabling precise measurement of the size of the newly grown tissue using ImageJ software.

Data set [4] relates to il1b, il6, mmp9, mmp13, il8 mRNA. The experiment in a line: qPCR of pro-inflammatory genes after tail wounding. It counts as in vivo, Zebrafish (Danio rerio). An excerpt:
(§2) For the tail fin amputation experiments, 3 days post fertilization (dpf) larvae from the Tg(mpx:GFP^i114/mpeg1:mCherry^umsF001) line were anesthetized in 0.02% buffered aminobenzoic acid ethyl ester (tricaine) in egg water and placed on a 2% agarose-coated petri dish. The tails were partially amputated with a 1 mm sapphire blade (World Precision Instruments) under a Leica M165C stereomicroscope (Leica Microsystems, Wetzlar, Germany). Chemical treatment (or 0.1% DMSO as vehicle treatment) was started at 2 h before the amputation (pretreatment) and was continued for 4 h after the tail fin amputation (20 larvae per group, unless indicated otherwise), at which time point the larvae were fixed in 4% paraformaldehyde (PFA) overnight at 4° C. and stored at 4° C. until further examination. In some experiments, a 24 h treatment with miglustat, ME656 or MZ31 was started at 2 dpf, and these treatments were continued during the pretreatment and treatment with the other chemicals. For imaging of larvae from the Tg(mpx:GFP^i114/mpeg1:mCherry^umsF001) line, a LeicaMZ16FA fluorescence stereomicroscope with LAS 3.7 software was used. Neutrophils were detected by GFP fluorescence and macrophages by mCherry fluorescence. The neutrophil numbers were determined by blinded manual counting in a pre-determined area. When larvae from gba2^−/− or gr^s357mutant lines were used, neutrophil labeling was performed with the TSA fluorescein detection kit (PerkinElmer) for specific staining of Myeloperoxidase (Mpx)-positive cells, following the manufacturer's instructions.
For experiments in zebrafish, gene expression was measured using 3 dpf embryos. Groups of 15 larvae were collected in TRIzol reagent (Invitrogen) and mRNA was isolated using the miRNeasy mini kit (Qiagen), according to the manufacturer's instructions. For experiments in HeLa cells, samples were collected from a single well from 6 well plates (80% confluent) in TRIzol reagent and mRNA was isolated using the RNeasy mini kit. Zebrafish and cells samples were treated with DNAse utilizing the DNA-Free™ kit (Ambion). The cDNA synthesis was performed using iScript cDNA synthesis kit (Bio-Rad) using 1 μg of RNA per sample. For qPCR, 10 μM of forward and 10 μM of reverse primer, 12.5 μL of iQ SYBR Green Supermix (Bio-Rad), and 2 μL of cDNA were added to the qPCR reaction mixture. […] The qPCR reactions were performed on a MyiQ-single-color real-time PCR detection system (Bio-Rad) with initial denaturation for 3 min at 95° C. and 40 cycles of 15 s at 95.5° C., 15 s at 60° C., and 30 s at 72° C. Cycle threshold values (Ct values, i.e. the cycle numbers at which a threshold value of the fluorescence intensity was reached) were determined for each sample. The gene expression level for each sample was normalized using the expression of ppial (peptidylprolyl isomerase Ab (cyclophilin A)) for zebrafish samples, and 18S rRNA for human cells. The fold change per sample (compared to the respective control group) was calculated using the ΔΔCt method.
In general terms: Quantitative PCR measures a nucleic acid by following its amplification.

The subject of data set [5] is Gr. The experiment in a line: Transactivation activity of Gr in Tg(9xGCRE-HSV.UI23:EGFP) reporter line. It counts as in vivo, Zebrafish (Danio rerio). The note with it: 24 h treatment, 3 dpf larvae. The procedure:
The Tg(9xGCRE-HSV.UI23:EGFP)^ia20 zebrafish reporter line expresses enhanced green fluorescent protein (EGFP) under the control of a promoter containing an array of nine GREs. To study the effect of chemical treatments on the transactivation activity of the Gr, 15 zebrafish embryos per group (2 dpf) were treated with the indicated compounds for 24 hours. The transactivation activity of Gr induced by the treatments was assessed using a LeicaMZ16FA fluorescence stereomicroscope supported by LAS 3.7 software. The integrated intensity of the EGFP signal in the larvae was determined using ImageJ software.

In data set [6] the test system is regenerated tail fin. The data set is described as follows: Regeneration of the tail fin after wounding. It counts as in vivo, Zebrafish (Danio rerio). The note with it: 5 dpf larvae, wounded at 2 dpf; for tissue regeneration with MZ31: GBA2 inhibitor MZ31. The procedure: as §1
Data set [7] relates to neutrophils migrated to the wounded area. The experiment in a line: Tail fin amputation assay: neutrophil migration to the wounded area. Type of data set: in vivo, Zebrafish (Danio rerio). The note with it: for reduction in neutrophil migration in the presence of MZ31: GBA2 inhibitor MZ31; for neutrophil migration in Gba2-deficient larvae: gba2-/- mutant line; for inhibition of neutrophil migration in Gr deficient larvae: gr mutant line (gr-/-); for reduction in neutrophil migration in the presence of miglustat: non-specific GBA inhibitor miglustat. The procedure: Zebrafish (Danio rerio) were maintained and handled according to the guidelines from the Zebrafish Model Organism Database (https://zfin.org/) and in compliance with the directives of the local animal welfare committee of Leiden University. To maintain circadian rhythmicity, adult fish were exposed to a 14 h light and 10 h dark cycle. Fertilization was performed by natural spawning at the beginning of the light period. Fertilized eggs were collected and raised at 28° C. in egg water (60 μg/ml Instant Ocean sea salts and 0.0025% methylene blue). The following zebrafish lines were used in this study: AB/TL wild type, the transgenic lines Tg(mpx:GFP^i114/mpeg1:mCherry^umsF001) (Bernut et al., (2014). Mycobacterium abscessus cording prevents phagocytosis and promotes abscess formation. Proc Natl Acad Sci USA 111, E943-952; Renshaw et al., (2006). A transgenic zebrafish model of neutrophilic inflammation. Blood 108, 3976-3978), and Tg(9xGCRE-HSV.UI123:EGFP)^ia20 (Benato et al., (2014). A living biosensor model to dynamically trace glucocorticoid transcriptional activity during development and adult life in zebrafish. Mol Cell Endocrinol 392, 60-72), and the mutant lines gba2^−/− (Lelieveld et al., (2019). Role of beta-glucosidase 2 in aberrant glycosphingolipid metabolism: model of glucocerebrosidase deficiency in zebrafish. J Lipid Res 60, 1851-1867) and gr^s357 (Ziv et al., (2013). An affective disorder in zebrafish with mutation of the glucocorticoid receptor. Mol Psychiatry 18, 681-691).
as §2

Data set [8] deals with IL-6. The experiment in a line: CAIA model: serum IL-6 by ELISA. It counts as in vivo, mouse. The procedure: All mice received 1.5 mg of a CAIA-cocktail (Chondrex) intravenously on day 1, followed by intraperitoneal (i.p.) injection of 50 μg LPS (Chondrex) on day 4. Mice were randomly divided into six groups. […] Scores were assigned blinded. […] The blood collection on day 14 was performed after 6 h fasting. On day 15, mice were sacrificed using carbon dioxide, and tissue samples were collected that were immediately frozen in liquid nitrogen. Applied humane endpoints were a total body weight loss of >20% in comparison to the day of LPS treatment or reaching an arthritis score of 45.
IL-6 concentrations were determined by ELISA in the serum collected at days 10 and 15, using the IL-6 mouse ELISA kit (Invitrogen), following the manufacturer's protocol. The insulin concentration was determined in serum collected at day 14, using the Ultra-sensitive mouse insulin ELISA kit (Crystal Chem), following the manufacturer's protocol. Corticosterone concentrations were determined in serum collected at day 15, using the Corticosterone HS (high sensitivity) enzyme immunoassay kit (Immunodiagnostic Systems), following the manufacturer's protocol. Expression levels of various GR target genes were determined by qPCR in the tissue samples (homogenized in TRIzol Reagent (ThermoFisher)) collected at day 15.

The subject of data set [9] is collagen antibody-induced arthritis (CAIA).
The mark [10] stands for this setting: Pdn 12.5 or 25 mg/kg i.p. daily from day 7.

As to `C[C@@H]1C[C@H]2[C@@H]3CCC4=CC(=O)C=C[C@]4(C)[C@@]3(F)[C@@H](O)C[C@]2(C)[C@@]1(O)C(=O)CO` [Dex, dexamethasone], the “whole body cortisol level” value in [1] is on record as “decreased the cortisol level; also recorded: significantly larger decrease”. For the same compound, the “whole body glucose level” value in data set [2] was “increased the glucose concentration”. In data set [3], the larval length result was “decreased”.

Regarding `CC(C)=CCC[C@](C)(O[C@@H]1O[C@H](CO)[C@@H](O)[C@H](O)[C@H]1O)[C@H]1CC[C@]2(C)[C@@H]1[C@H](O)C[C@@H]1[C@@]3(C)CC[C@H](O[C@@H]4O[C@H](CO)[C@@H](O)[C@H](O)[C@H]4O)C(C)(C)[C@@H]3CC[C@]12C` [F2], the “wounding-induced increase in expression of il1b, il6 and mmp9” value in data set [4] is “strongly suppressed”. Moreover, the “transactivation activity of Gr (GFP signal in GRE:GFP reporter fish line)” value in data set [5] was “did not cause an increase in the fluorescence intensity”. For the same compound, in data set [1], the “whole body cortisol level” value is given as “neither did they affect the cortisol concentration”, the “whole body cortisol level under wounding conditions” value was “minor effect” and the “whole body cortisol level under wounding conditions with MZ31” value is “GBA2-dependent”. In [2], the “whole body glucose level” value is listed as “did not show any effect on glucose”. Also, in data set [6], the “tissue regeneration (length of regenerated tail fin)” value is listed as “neither did they affect; also recorded: minor effect” and the “tissue regeneration with MZ31” value is recorded as “GBA2-dependent”. In addition, in data set [7], the “reduction in neutrophil migration in the presence of MZ31” value was “abolished”, the “neutrophil migration in Gba2-deficient larvae” value was “did not affect the neutrophil migration”, the “inhibition of neutrophil migration in Gr deficient larvae” value was “the inhibition of neutrophil migration was abolished” and the “reduction in neutrophil migration in the presence of miglustat” value is “abolished”.

In the case of `C[C@]12C=CC(=O)C=C1CC[C@@H]1[C@@H]2[C@@H](O)C[C@@]2(C)[C@H]1CC[C@]2(O)C(=O)CO` [Pdn, prednisolone], the “expression of the pro-inflammatory genes il1b, il6 and il8” value in data set [4] was “these effects were similar to those observed upon Pdn and GPdn treatment”. For the same compound, in data set [8] (day 10, all treatment groups), the “serum IL-6 level compared to the vehicle group” value is “significant reduction of the IL-6 level”. The “serum IL-6 level” value in data set [8] (day 15, all groups except 12.5 mg/kg GbPdn) is “undetectable”. Also, in data set [9] (setting [10]), the “arthritis score at maximal reduction” value is reported as “approximately 0” and the “day of maximal reduction of arthritis score” value turned out to be 11 days. In addition, the “arthritis scores after treatment initiation” value in [9] (all dose groups, daily i.p. from day 7) is “decreased rapidly after treatment initiation”. Besides, the “whole body cortisol level” value in data set [1] is recorded as “significantly larger decrease”. The “migration of neutrophils towards the wounded area” value in [7] (wild type larvae, 4 h after tail wounding) was “inhibited the neutrophil migration”.

In the case of `CC(C)=CCC[C@](C)(O[C@@H]1O[C@H](CO[C@@H]2O[C@H](CO)[C@@H](O)[C@H](O)[C@H]2O)[C@@H](O)[C@H](O)[C@H]1O)[C@H]1CC[C@]2(C)[C@@H]1[C@H](O)C[C@@H]1[C@@]3(C)CC[C@H](O[C@@H]4O[C@H](CO)[C@@H](O)[C@H](O)[C@H]4O[C@@H]4O[C@H](CO)[C@@H](O)[C@H](O)[C@H]4O)C(C)(C)[C@@H]3CC[C@]12C` [Rb1], in [4], the “wounding-induced increase in expression of il1b, il6 and mmp9” value was “strongly suppressed”. Also, in [5], the “transactivation activity of Gr (GFP signal in GRE:GFP reporter fish line)” value was “did not cause an increase in the fluorescence intensity”. In addition, in data set [1], the “whole body cortisol level” value was “neither did they affect the cortisol concentration”, the “whole body cortisol level under wounding conditions” value is “minor effect” and the “whole body cortisol level under wounding conditions with MZ31” value is reported as “GBA2-dependent”. Further, the “whole body glucose level” value in data set [2] is “did not show any effect on glucose”. For the same compound, in data set [6], the “tissue regeneration (length of regenerated tail fin)” value is recorded as “neither did they affect; also recorded: minor effect” and the “tissue regeneration with MZ31” value was “GBA2-dependent”. Further, in [7], the “reduction in neutrophil migration in the presence of MZ31” value is listed as “abolished”, the “neutrophil migration in Gba2-deficient larvae” value is “did not affect the neutrophil migration”, the “inhibition of neutrophil migration in Gr deficient larvae” value is “the inhibition of neutrophil migration was abolished” and the “reduction in neutrophil migration in the presence of miglustat” value was “abolished”.
